Source: patent EP3409671B1, “ISOTHIAZOLE DERIVATIVES AS GPR120 AGONISTS FOR THE TREATMENT OF TYPE II DIABETES” (Janssen Pharmaceutica NV, priority 2014, dated 2015)

Molecular target: T1, Human GPR120 short form (Homo sapiens, UniProt Q5NUL3)
T1 construct: expressed in transfected cells
T1 sequence (Q5NUL3 1-361): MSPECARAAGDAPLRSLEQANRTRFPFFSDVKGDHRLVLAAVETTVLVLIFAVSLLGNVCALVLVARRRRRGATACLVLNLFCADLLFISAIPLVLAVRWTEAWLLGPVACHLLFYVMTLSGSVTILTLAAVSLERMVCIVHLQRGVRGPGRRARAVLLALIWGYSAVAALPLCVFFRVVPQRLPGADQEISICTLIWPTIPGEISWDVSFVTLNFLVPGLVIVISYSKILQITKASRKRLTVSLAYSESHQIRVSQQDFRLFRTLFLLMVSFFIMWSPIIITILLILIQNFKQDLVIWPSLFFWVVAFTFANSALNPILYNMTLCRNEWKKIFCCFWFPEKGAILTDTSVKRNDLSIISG
Assay: Human GPR120 Calcium Flux Assay, Procedure Calcium A
Format: cell-based
Conditions: HEK-293 cells expressing Human GPR120 short form, FLIPR, 2500 cells / well; read-out: GPR120 Ca^2+ Assay A EC50
Source text: This in vitro assay serves to assess test compound agonist activity against the short splice variant (SVS with Accession number NM_001195755.1 confirmed by sequencing data) of the GPR120 receptor. The Human Short splice variant #2 (NM_001195755.1) is missing an in-frame coding exon compared to variant 1 (the Human Long splice variant NM_181745.3), resulting in a shorter isoform (GPR120-S) lacking a 16 aa protein segment compared to isoform GPR120-L. The assay platform utilizes HEK-293 cells stably transfected to express the Human GPR120 short form. These cells are first loaded with the Ca^+2 sensitive dye, Fluo-4 NW. Upon stimulation, intracellular released Ca^+2 can bind to the dye and alter its fluorescence intensity. This increase in fluorescence signal, and thus the flux in intracellular [Ca^2+], is detected and quantitated by fluorescence imaging using a FLIPR reader. The effect of the agonist is measured as a function of concentration and used to calculate an EC50 based upon a response curve.
In this procedure 2500 cells / well were employed.
A Human GPR120 clone (Genbank accession number NM _001195755.1) was placed into the pcDNA3.1 mammalian expression vector carrying the neomycin resistance gene. A stable mammalian cell was generated by placing the above clone into a HEK293 background. Clonal cells responding to long chain fatty acids had expression levels of GPR120 confirmed by RT-qPCR. Human HEK-GPR120 cells were cultured in Dulbecco's Modified Eagle's Medium (DMEM)/F12 medium supplemented with 10% fetal bovine serum (FBS), 1% L-Glutamine and 1% penicillin/streptomycin and 0.5 mg/ml G-418. Cells were split 2 times a week to keep the cells in the log-phase growth.
In preparation for the assay, HEK cells stably transfected with Human GPR120 (2.5K cells per well in 25uL growth medium) were seeded into 384-well plates and then incubated overnight (37°C, 5% CO2). The next day, the media was changed to 20 µL assay buffer and the cell starved for 1h at 37°C. […]
The assay was performed on a FLIPR plate reader using the following parameters. Baseline was read for 10 seconds at 1 sec intervals. The program was set to transfer 10µL of ligand from compound plate to cell plate after baseline reading. […] After compound addition, each well was read for 300 sec, with measurements collected at 1 sec intervals.
The kinetic data from the FLIPR was based upon a 5 minute window for data collection. The fluorescence of each sample well was used for individual calculations of a normalized RFU value, which was defined as maximum response minus the minimum response. The normalized fluorescence reading (RFU) was calculated as follows: RFU = Fmax−Fmin [formula] […]

| EC50 | SMILES |
| --- | --- |
| 231 nM | O=C(O)CCc1ccc(OCc2c(C(F)(F)F)nsc2-c2ccc(Cl)cc2)c(Cl)c1Cl [Cpd 55, 3-(2,3-dichloro-4-[[5-(4-chlorophenyl)-3-(trifluoromethyl)-1,2-thiazol4-yl]methoxy]phenyl) propanoic acid] |
| 42 nM | O=C(O)CCc1cc(F)c(OCc2c(Cl)nsc2-c2ccc(Cl)cc2)c(F)c1 [Cpd 75, 3-(4-[[3-chloro-5-(4-chlorophenyl)-1,2-thiazol-4-yl]methoxy]-3,5-difluorophenyl)propanoic acid] |
